Measured values taken from US20160137746A1, “METHODS FOR TREATING HIGH CARDIOVASCULAR RISK PATIENTS WITH HYPERCHOLESTEROLEMIA” (Sanofi Biotechnology, priority 2014, published 2016).

Key:
[1] = test system: high cardiovascular risk patients with hypercholesterolemia; conditions: in vivo
Protocol: (§1) Safety was assessed through adverse event (AE) reporting (including adjudicated cardiovascular events), laboratory analyses, and vital signs measurement. Since the LDL-C-lowering effects of PCSK9 inhibition on top of a statin are unknown, a number of AEs were defined as being of special interest and were monitored, including alanine aminotransferase abnormalities, allergic events, hemolytic anemia, pregnancy, overdose with study drug, neurologic events, ophthalmic events, and local injection site reactions. AEs were determined to be of special interest based on review of previous clinical trials, correspondence with regulatory authorities and the Data Monitoring Committee, the use of a monoclonal antibody in this study, and the route of drug administration.
(§2) AEs (including adjudicated cardiovascular events), laboratory parameters, and vital signs were reported descriptively, based on the safety population (all randomized patients who received at least 1 dose or partial dose of study treatment). The safety analysis focused on the treatment-emergent AE period defined as the time from the first double-blind dose to the last double-blind dose of the investigational product +70 days (10 weeks).
(§3) The safety population included all randomized patients who received at least one dose or part of a dose of the double-blind IMP.
(§4) Safety analyses were descriptive, performed on the safety population according to treatment actually received. For analysis of TEAE and PCSA, the safety analysis focused on the TEAE period defined as the time from the first dose of double-blind IMP up to 70 days after the last double-blind injection.

[2] = test system: high cardiovascular risk patients with hypercholesterolemia; assay: ODYSSEY COMBO I: lipid efficacy of alirocumab vs placebo, add-on to maximally tolerated statin, 52 weeks; format: in vivo, human
Text: Each of the COMBO studies was randomized, double-blinded, and placebo-controlled.
The primary efficacy endpoint for each study was the difference between treatment arms in the percent change in LDL-C from baseline to Week 24.
Apo, apolipoprotein; HDL-C, high-density lipoprotein cholesterol; ITT, intent-to-treat; LDL-C, low-density lipoprotein cholesterol; Lp(a), lipoprotein (a); TG, triglycerides.
COMBO I was a Phase 3, randomized, double-blind, placebo-controlled, parallel-group, multicenter, 52-week study.
After randomization, patients entered a double-blind treatment period of 52 weeks. […] Patients randomized to placebo received a 1 ml SC placebo injection from an identical auto-injector.
To maintain blinding, the patient and investigator were not informed of the Week 8 LDL-C levels (or any lipid values after randomization); continuation or up-titration of dose occurred in an automated and blinded manner.
Primary analyses of efficacy endpoints were conducted using an ITT approach (based on the ITT population defined above), including all lipid data, regardless of whether the patient was continuing therapy or not. This corresponds to ITT estimands, defined for primary and key secondary endpoints. In addition, analyses were also conducted using an on-treatment approach (based on the mITT population defined above), including lipid data collected during the efficacy treatment period. This corresponds to on-treatment estimands of key secondary endpoints.
With regards to the primary efficacy analysis (ITT approach), the percent change in calculated LDL-C from baseline to Week 24 was analyzed using a mixed-effect model with repeated measures (MMRM) approach. All post-baseline data available from Week 4 to Week 52 analysis windows were used and missing data were accounted for by the MMRM.

[3] = test system: high cardiovascular risk patients with hypercholesterolemia; assay: ODYSSEY COMBO I: safety (TEAEs, adjudicated CV events, laboratory PCSA, low LDL-C)
Protocol: as §1, §2, §3, §4

[4] = ITT, Week 24, listed as alirocumab
[5] = Week 24, 'Combo I: Overall Results' paragraph
[6] = alirocumab patients with LDL-C <25 mg/dL

Alirocumab: human anti-PCSK9 antibody; HCVR SEQ ID NO:1, LCVR SEQ ID NO:6; CDRs SEQ ID NOs 2/3/4/7/8/10
SOC infections and infestations [1]: 37.2%
Urinary tract infection (TEAE preferred term) [1]: 13 (6.3) No. (%) of patients
Patients with automatic up-titration at Week 12 from 75 mg Q2W to 150 mg Q2W (Week 8 LDL-C ≧70 mg/dL) ([2]; 32 of 191 patients with at least one injection after Week 12): 16.8%
Patients who reached LDL-C <70 mg/dL despite baseline LDL-C >190 mg/dL ([2]; 'Combo I: Overall Results' paragraph): 32%
Calculated LDL-C change from baseline, LS mean ([2]; ITT, Week 4): -1.308 mmol/L
Calculated LDL-C change from baseline, LS mean (SE) ([2]; ITT, Week 4): −50.5 (1.7) mg/dL
Calculated LDL-C value, LS mean ([2]; ITT, Week 4): 1.327 mmol/L
Calculated LDL-C value, LS mean (SE) ([2]; ITT, Week 4): 51.2 (1.7) mg/dL
Calculated LDL-C, LS mean (SE) percent change from baseline ([2]; ITT, Week 4): −50.6 (1.7) %
Calculated LDL-C change from baseline, LS mean ([2]; ITT, Week 8): -1.372 mmol/L
Calculated LDL-C change from baseline, LS mean (SE) ([2]; ITT, Week 8): −53.0 (1.7) mg/dL
Calculated LDL-C value, LS mean ([2]; ITT, Week 8): 1.264 mmol/L
Calculated LDL-C value, LS mean (SE) ([2]; ITT, Week 8): 48.8 (1.7) mg/dL
Calculated LDL-C, LS mean (SE) percent change from baseline ([2]; ITT, Week 8): −51.6 (1.7) %
Apo-B percent change, LS mean difference vs placebo ([2]; ITT, Week 12): placebo of −38.2%
Calculated LDL-C change from baseline, LS mean ([2]; ITT, Week 12): -1.207 mmol/L
Calculated LDL-C change from baseline, LS mean (SE) ([2]; ITT, Week 12): −46.6 (2.0) mg/dL
Calculated LDL-C percent change, LS mean difference vs placebo ([2]; ITT, Week 12): placebo of −47.4%
Calculated LDL-C value, LS mean ([2]; ITT, Week 12): 1.428 mmol/L
Calculated LDL-C value, LS mean (SE) ([2]; ITT, Week 12): 55.1 (2.0) mg/dL
Non-HDL-C percent change, LS mean difference vs placebo ([2]; ITT, Week 12): placebo of −40.1%
Total-C percent change, LS mean difference vs placebo ([2]; ITT, Week 12): placebo of −26.4%
Calculated LDL-C, LS mean (SE) percent change from baseline ([2]; ITT, Week 12 (before possible up-titration)): −46.3 (1.8) %
Calculated LDL-C, LS mean (SE) percent change from baseline ([2]; ITT, Week 12 (before possible up-titration), listed as alirocumab): −46.3%
Calculated LDL-C percent change, LS mean difference vs placebo ([2]; ITT, Week 12, listed as alirocumab): −47.4%
Calculated LDL-C change from baseline, LS mean ([2]; ITT, Week 16): -1.345 mmol/L
Calculated LDL-C change from baseline, LS mean (SE) ([2]; ITT, Week 16): −51.9 (1.9) mg/dL
Calculated LDL-C value, LS mean ([2]; ITT, Week 16): 1.291 mmol/L
Calculated LDL-C value, LS mean (SE) ([2]; ITT, Week 16): 49.8 (1.9) mg/dL
Calculated LDL-C, LS mean (SE) percent change from baseline ([2]; ITT, Week 16): −50.5 (1.9) %
Apo-B percent change, LS mean difference vs placebo ([2]; ITT, Week 24): placebo of −35.8%
Calculated LDL-C change from baseline, LS mean ([2]; ITT, Week 24): -1.303 mmol/L
Calculated LDL-C change from baseline, LS mean (SE) ([2]; ITT, Week 24): −50.3 (2.0) mg/dL
Calculated LDL-C percent change, LS mean difference (SE) vs placebo ([2]; ITT, Week 24): −45.9 (3.3) %
Calculated LDL-C value, LS mean ([2]; ITT, Week 24): 1.332 mmol/L
Calculated LDL-C value, LS mean (SE) ([2]; ITT, Week 24): 51.4 (2.0) mg/dL
Calculated LDL-C, LS mean (SE) percent change from baseline ([2]; ITT, Week 24): −48.2 (1.9) %
Calculated LDL-C, LS mean difference (SE) vs placebo, pattern-mixture-model sensitivity analysis ([2]; ITT, Week 24): −42.7 (3.7) %
HDL-C percent change, LS mean difference vs placebo ([2]; ITT, Week 24): placebo of 7.3%
Lp(a) percent change, combined estimate for adjusted mean difference vs placebo ([2]; ITT, Week 24): vs. placebo of −14.6%
Non-HDL-C percent change, LS mean difference vs placebo ([2]; ITT, Week 24): placebo of −37.5%
Total-C percent change, LS mean difference vs placebo ([2]; ITT, Week 24): placebo of −25%
Calculated LDL-C percent change, LS mean difference (SE) vs placebo [2, 4]: −45.9%
Calculated LDL-C, LS mean (SE) percent change from baseline [2, 4]: −48.2%
Fasting TGs percent change, combined estimate for adjusted mean difference vs placebo ([2]; ITT, Week 24, not statistically significant (p 0.7597)): vs. placebo of −1.2%
Calculated LDL-C change from baseline, LS mean ([2]; ITT, Week 36): -1.225 mmol/L
Calculated LDL-C change from baseline, LS mean (SE) ([2]; ITT, Week 36): −47.3 (2.2) mg/dL
Calculated LDL-C value, LS mean ([2]; ITT, Week 36): 1.411 mmol/L
Calculated LDL-C value, LS mean (SE) ([2]; ITT, Week 36): 54.5 (2.2) mg/dL
Calculated LDL-C, LS mean (SE) percent change from baseline ([2]; ITT, Week 36): −44.8 (2.5) %
Calculated LDL-C change from baseline, LS mean ([2]; ITT, Week 52): -1.153 mmol/L
Calculated LDL-C change from baseline, LS mean (SE) ([2]; ITT, Week 52): −44.5 (2.4) mg/dL
Calculated LDL-C percent change, LS mean difference vs placebo ([2]; ITT, Week 52): placebo of −43%
Calculated LDL-C value, LS mean ([2]; ITT, Week 52): 1.483 mmol/L
Calculated LDL-C value, LS mean (SE) ([2]; ITT, Week 52): 57.2 (2.4) mg/dL
Calculated LDL-C, LS mean (SE) percent change from baseline ([2]; ITT, Week 52): −42.5 (2.5) %
Calculated LDL-C, LS mean (SE) percent change from baseline ([2]; ITT, Week 52, listed as alirocumab): −42.5%
Calculated LDL-C percent change, LS mean difference vs placebo ([2]; On-treatment, Week 12): placebo of −49.3%
Apo-B percent change, LS mean difference vs placebo ([2]; On-treatment, Week 24): placebo of −37.5%
Calculated LDL-C percent change, LS mean difference (SE) vs placebo ([2]; On-treatment, Week 24): −49.9%
Calculated LDL-C, LS mean (SE) percent change from baseline ([2]; On-treatment, Week 24): −50.7 (1.9) %
Non-HDL-C percent change, LS mean difference vs placebo ([2]; On-treatment, Week 24): placebo of −40.4%
Percent LDL-C reduction vs placebo within demographic and patient subgroups ([2]; Week 24, FIG. 5): seen at every level within each subgroup
Absolute mean decrease from baseline in LDL-C [2, 5]: -90.8 mg/dL
Patients who achieved LDL-C <100 mg/dL [2, 5]: 57%
Change in triglyceride levels ([2]; baseline to Week 24): No significant change
HDL-C percent change from baseline ([2]; baseline to Week 24): 3.5 (1.1) %
Additional mean LDL-C reduction at week 24 compared with week 12 ([2]; patients with dose increase to 150 mg Q2W at week 12): 22.8%
Ischemic events (within SOC Cardiac disorders) ([3]; TEAE period): 9 events
SAEs reported ([3]; TEAE period): 12.6%
SOC Cardiac disorders ([3]; TEAE period): 8.2%
SOC Metabolism and nutrition disorder ([3]; TEAE period): 10.1%
SOC eye disorders ([3]; TEAE period): 4.3%
Arthralgia rate ([3]; alirocumab group as a whole): 3.9%
Invertebral disc protusion rate ([3]; alirocumab group as a whole): 1.0%
Myalgia rate ([3]; alirocumab group as a whole): 3.4%
Osteoarthritis rate ([3]; alirocumab group as a whole): 3.9%
Arthralgia rate [3, 6]: 5.1%
Invertebral disc protusion rate [3, 6]: 5.1%
Myalgia rate [3, 6]: 7.7%
Osteoarthritis rate [3, 6]: 7.7%
Patients with cardiovascular events that were positively adjudicated ([3]; as stated in text b249 (5 patients)): 2.4%
PCSA: decrease of hemoglobin from baseline ≧20 g/L ([3]; in vivo): 6.3%
PCSA: new cases of erythrocytes values ≧6 Tera/L ([3]; in vivo): 2.5%
Patients with impaired glucose control at baseline classified as diabetic in the TEAE period ([3]; in vivo): 7.4%
Patients with two consecutive calculated LDL-C values <25 mg/dL ([3]; in vivo): 19.5%
Safety in patients with two consecutive calculated LDL-C <25 mg/dL ([3]; in vivo): No particular safety concern
Asthma (general allergic reactions), cases ([3]; including 2 serious cases): 5 (2.4%) No. (%)
Deaths during treatment period ([3]; myocardial infarction and pulmonary embolism): 1.0%
Tolerability ([3]; overall results): generally well tolerated
Time to the first calculated LDL-C value <15 mg/dL, mean (SD) ([3]; safety population): 12.51 (6.83) weeks
Time to the first calculated LDL-C value <15 mg/dL, median ([3]; safety population): 13.57 weeks
Time to the first calculated LDL-C value <25 mg/dL, mean (SD) ([3]; safety population): 11.48 (9.72) weeks
Time to the first calculated LDL-C value <25 mg/dL, median ([3]; safety population): 8.00 weeks
Any patients with treatment emergent cardiovascular events confirmed by adjudication ([3]; safety population, to week 52): −6 (2.9) No. (%) of patients
Arthralgia (TEAE preferred term) ([3]; safety population, to week 52): 8 (3.9) No. (%) of patients
Congestive heart failure requiring hospitalization, adjudicated ([3]; safety population, to week 52): 0 No. (%) of patients
Coronary heart disease death (including undetermined cause), adjudicated ([3]; safety population, to week 52): 1 (0.5) No. (%) of patients
Dizziness (TEAE preferred term) ([3]; safety population, to week 52): 11 (5.3) No. (%) of patients
Fatal and non-fatal ischemic stroke (including stroke not otherwise specified), adjudicated ([3]; safety population, to week 52): −2 (1.0) No. (%) of patients
Injection site reaction (TEAE preferred term) ([3]; safety population, to week 52): 11 (5.3) No. (%) of patients
Ischemia driven coronary revascularization procedure, adjudicated ([3]; safety population, to week 52): 3 (1.4) No. (%) of patients
Local injection site reactions (AE of special interest) ([3]; safety population, to week 52): 11 (5.3) No. (%) of patients
Nasopharyngitis (TEAE preferred term) ([3]; safety population, to week 52): 15 (7.2) No. (%) of patients
Neurocognitive disorders (AE of special interest) ([3]; safety population, to week 52): 0 (0) No. (%) of patients
Neurological events (AE of special interest) ([3]; safety population, to week 52): 5 (2.4) No. (%) of patients
Non-cardiac chest pain (TEAE preferred term) ([3]; safety population, to week 52): 2 (1.0) No. (%) of patients
Non-fatal myocardial infarction, adjudicated ([3]; safety population, to week 52): 1 (0.5) No. (%) of patients
Potential general allergic reaction events (AE of special interest) ([3]; safety population, to week 52): 18 (8.7) No. (%) of patients
Sinusitis (TEAE preferred term) ([3]; safety population, to week 52): 11 (5.3) No. (%) of patients
TEAE leading to death ([3]; safety population, to week 52): 2 (1.0) No. (%) of patients
TEAEs ([3]; safety population, to week 52): 157 (75.8) No. (%) of patients
TEAEs leading to discontinuation ([3]; safety population, to week 52): 13 (6.3) No. (%) of patients
Treatment-emergent SAEs ([3]; safety population, to week 52): 26 (12.6) No. (%) of patients
Local injection site reactions (AE of special interest) ([3]; safety population, to week 52, listed as alirocumab): 11 (5.3%) No. (%) of patients
